This is an account of results in US7163952B2, “Azole compound and medicinal use thereof” (Japan Tobacco Inc., priority 2001, dated 2007).

Molecules are shown by their SMILES.

As for `O=C(O)c1ccc(N(CC2CCCCC2)c2nc(-c3ccc(NCc4ccc(C(F)(F)F)cc4)cc3)cs2)cc1` [Example 134, 4-(N-cyclohexylmethyl-N-(4-(4-(4-trifluoromethylbenzylamino)phenyl)-2-thiazolyl)amino)benzoic acid], the melting point lay within 199 to 203 °C. Compound `CC(C)N(Cc1ccc(-c2nnn[nH]2)cc1)c1nc(-c2ccc(OCc3ccc(C4CCCCC4)cc3)cc2)cs1` [Example 79, N-(4-(4-(4-cyclohexylbenzyloxy)phenyl)-2-thiazolyl)-N-isopropyl-(4-(1H-tetrazol-5-yl)benzyl)amine] came in with a melting point of 238 to 239 °C.

On to `CN(c1ccc(C(=O)O)cc1)c1nc(-c2ccc(NCc3ccc(Cl)c(Cl)c3)cc2)cs1` [Example 128, 4-(N-(4-(4-(3,4-dichlorobenzylamino)phenyl)-2-thiazolyl)-N-methylamino)benzoic acid], for which the melting point fell in the range of 223 to 225 °C. In the case of `CN(Cc1ccc(C(=O)O)cc1)c1nc(-c2ccc(N(C)Cc3ccc(C(C)(C)C)cc3)c(Cl)c2)cs1` [Example 244, 4-((N-(4-(4-(N-(4-tert-butylbenzyl)-N-methylamino)-3-chlorophenyl)-2-thiazolyl)-N-methylamino)methyl)benzoic acid] it was 153 to 154 °C. Under `COc1ccc(OCc2ccc(C(F)(F)F)cc2)c(-c2csc(N(CCC3CCCCC3)Cc3ccc(C(=O)O)cc3)n2)c1` [Example 166, 4-((N-(2-cyclohexylethyl)-N-(4-(5-methoxy-2-(4-trifluoromethylbenzyloxy)phenyl)-2-thiazolyl)amino)methyl)benzoic acid] stands 183 to 184 °C; under `O=C(O)c1ccc(N(CCC2CCCCC2)c2nc(-c3nc4ccc(OCc5ccc(Cl)c(Cl)c5)cc4o3)cs2)cc1` [Example 184, 4-(N-(2-cyclohexylethyl)-N-(4-(6-(3,4-dichlorobenzyloxy)-2-benzooxazolyl)-2-thiazolyl)amino)benzoic acid], 195 to 197 °C.

Turning to `O=C(O)c1ccc(N(CC2CCCCC2)c2nc(-c3ccc(OCc4ccc(C5CCCCC5)cc4)cc3)cs2)cc1` [Example 25, 4-(N-(4-(4-(4-cyclohexylbenzyloxy)phenyl)-2-thiazolyl)-N-cyclohexylmethylamino)benzoic acid], the melting point was 230 °C (dec.). `CN(Cc1ccc(C(C)(C)C)cc1)c1ccc(-c2csc(N(C)Cc3ccc(C(=O)O)cc3)n2)cc1` [Example 233, 4-((N-(4-(4-(N-(4-tert-butylbenzyl)-N-methylamino)phenyl)-2-thiazolyl)-N-methylamino)methyl)benzoic acid] came in with a melting point of 166 to 167 °C. As for `O=C(O)c1ccc(COc2cc(C(=O)O)ccc2Nc2nc(-c3ccc(OCc4ccc(C5CCCCC5)cc4)cc3)cs2)cc1` [Example 74, 3-(4-carboxybenzyloxy)-4-(4-(4-(4-cyclohexylbenzyloxy)phenyl)-2-thiazolylamino)benzoic acid], the melting point was 230 °C (dec.). In turn, `Cc1nc(N(C)Cc2ccc(C3CCCCC3)cc2)sc1-c1csc(N(C)Cc2ccc(C(=O)O)cc2)n1` [Example 227, 4-((N-(2′-(N-(4-cyclohexylbenzyl)-N-methylamino)-4′-methyl-4,5′-bithiazolyl-2-yl)-N-methylamino)methyl)benzoic acid] had a melting point of 172 to 173 °C.

`CN(Cc1ccc(C(=O)OCOC(=O)C(C)(C)C)cc1)c1nc(-c2ccc(OCc3ccc(C4CCCCC4)cc3)cc2)cs1` [Example 268, 2,2-dimethylpropionyloxymethyl 4-((N-(4-(4-(4-cyclohexylbenzyloxy)phenyl)-2-thiazolyl)-N-methylamino)methyl)benzoate] yielded a melting point of 88 to 90 °C. As for `CC(C)N(c1ccc(C(=O)O)cc1)c1nc(-c2ccc(OCc3ccc(Cl)c(Cl)c3)cc2)cs1` [Example 96, 4-(N-(4-(4-(3,4-dichlorobenzyloxy)phenyl)-2-thiazolyl)-N-isopropylamino)benzoic acid], the melting point was 236 to 238 °C.

In turn, `O=C(O)c1ccc(Nc2nc(-c3cc(Cl)ccc3OCc3ccc(C(F)(F)F)cc3)cs2)c(OCCC2CCCCC2)c1` [Example 179, 4-(4-(5-chloro-2-(4-trifluoromethylbenzyloxy)phenyl)-2-thiazolylamino)-3-(2-cyclohexylethoxy)benzoic acid] showed a melting point of 134 to 140 °C. For the compound `CC(C)N(Cc1ccc(C(=O)O)cc1)c1nc(-c2ccc(NS(=O)(=O)c3ccc(C(F)(F)F)cc3)cc2)cs1` [Example 106, 4-((N-isopropyl-N-(4-(4-(4-trifluoromethylbenzenesulfonylamino)phenyl)-2-thiazolyl)amino)methyl)benzoic acid], the melting point lay in the range of 132 to 134 °C. `O=C(O)c1ccc(N(CCC2CCCCC2)c2nc(-c3cc(F)ccc3OCc3ccccc3)cs2)cc1` [Example 174, 4-(N-(4-(2-benzyloxy-5-fluorophenyl)-2-thiazolyl)-N-(2-cyclohexylethyl)amino)benzoic acid] gave a melting point of 125 to 130 °C. Turning to `CN(Cc1ccc(CC(C)(C)C)cc1)c1ccc(-c2csc(N(C)Cc3ccc(C(=O)O)cc3)n2)cc1` [Example 229, 4-((N-(4-(4-(N-(4-(2,2-dimethylpropyl)benzyl)-N-methylamino)phenyl)-2-thiazolyl)-N-methylamino)methyl)benzoic acid], the melting point was in the range of 176 to 177 °C.

Consider `CC(C)CN(c1ccc(C(=O)O)cc1)c1nc(-c2ccc(NC(=O)c3ccc(C4CCCCC4)cc3)cc2)cs1` [Example 17, 4-(N-(4-(4-(4-cyclohexylbenzoylamino)phenyl)-2-thiazolyl)-N-isobutylamino)benzoic acid], for which the melting point is 230 °C (dec.). For the compound `O=C(O)c1ccc(CNc2nc(-c3cc(Cl)ccc3OCc3ccccc3)cs2)cc1` [Example 162, 4-((4-(2-benzyloxy-5-chlorophenyl)-2-thiazolylamino)methyl)benzoic acid], the melting point fell in the range of 210 to 211 °C. Turning to `CN(c1ccc(C(=O)O)cc1)c1nc(-c2cccc(OCc3ccc(C4CCCCC4)cc3)c2)cs1` [Example 139, 4-(N-(4-(3-(4-cyclohexylbenzyloxy)phenyl)-2-thiazolyl)-N-methylamino)benzoic acid], the melting point was 250 °C (dec.). With `CCN(c1ccc(C(=O)O)cc1)c1nc(-c2ccc(NC(=O)C3CCCCC3)cc2)cs1` [Example 11, 4-(N-(4-(4-(cyclohexanecarbonylamino)phenyl)-2-thiazolyl)-N-ethylamino)benzoic acid], the melting point was 250 °C (dec.). With `CCN(c1ccc(C(=O)O)cc1)c1nc(-c2ccc(OCc3ccc(C4CCCCC4)cc3)cc2)cs1` [Example 23, 4-(N-(4-(4-(4-cyclohexylbenzyloxy)phenyl)-2-thiazolyl)-N-ethylamino)benzoic acid], the melting point is 239 to 247 °C.

In the case of `CC(C)N(c1cccc(C(=O)O)c1)c1nc(-c2ccc(NC(=O)c3ccc(N4CCOCC4)cc3)cc2)cs1.Cl`, the melting point was 230 °C (dec.). `O=C(O)c1cccc(N(CC2CCCCC2)c2nc(-c3cc(Cl)ccc3OCc3ccccc3)cs2)c1` [Example 181, 3-(N-(4-(2-benzyloxy-5-chlorophenyl)-2-thiazolyl)-N-cyclohexylmethylamino)benzoic acid] returned a melting point of 98 to 100 °C.

In turn, `O=C(O)c1ccc(N(Cc2ccc(C(F)(F)F)cc2)c2nc(-c3cc(Cl)ccc3OCc3ccccc3)cs2)cc1` [Example 159, 4-(N-(4-(2-benzyloxy-5-chlorophenyl)-2-thiazolyl)-N-(4-trifluoromethylbenzyl)amino)benzoic acid] displayed a melting point of 194 to 196 °C. In turn, `COc1ccc(OCc2ccc(C(F)(F)F)cc2)c(-c2csc(N(CCC3CCCCC3)c3ccc(C(=O)O)cc3)n2)c1` [Example 170, 4-(N-(2-cyclohexylethyl)-N-(4-(5-methoxy-2-(4-trifluoromethylbenzyloxy)phenyl)-2-thiazolyl)amino)benzoic acid] gave a melting point of 104 to 107 °C. Regarding `O=C(O)c1ccc(C2(c3nc(-c4ccc(OCc5ccc(C6CCCCC6)cc5)cc4)cs3)CCCC2)cc1` [Example 91, 4-(1-(4-(4-(4-cyclohexylbenzyloxy)phenyl)-2-thiazolyl)cyclopentyl)benzoic acid], the melting point lay within 248 to 251 °C.

Consider `CN(c1ccc(C(=O)O)cc1)c1nc(-c2ccc(NCc3ccc(C(F)(F)F)cc3)cc2)cs1` [Example 133, 4-(N-methyl-N-(4-(4-(4-trifluoromethylbenzylamino)phenyl)-2-thiazolyl)amino)benzoic acid], for which the melting point is 230 °C (dec.). Under `O=C(O)c1cccc(N(CCC2CCCCC2)c2nc(-c3cc(Cl)ccc3OCc3ccccc3)cs2)c1` [Example 172, 3-(N-(4-(2-benzyloxy-5-chlorophenyl)-2-thiazolyl)-N-(2-cyclohexylethyl)amino)benzoic acid] stands 170 to 171 °C; under `O=C(O)CN(c1ccc(C(=O)O)cc1)c1nc(-c2ccc(NC(=O)c3ccc(C4CCCCC4)cc3)cc2)cs1` [Example 18, 4-(N-carboxymethyl-N-(4-(4-(4-cyclohexylbenzoylamino)phenyl)-2-thiazolyl)amino)benzoic acid], 230 °C (dec.). As for `CC(C)N(c1ccc(OCC(=O)O)cc1)c1nc(-c2ccc(NC(=O)c3ccc(N4CCOCC4)cc3)cc2)cs1` [Example 54, (4-(N-isopropyl-N-(4-(4-(4-morpholinobenzoylamino)phenyl)-2-thiazolyl)amino)phenoxy)acetic acid], the melting point is 250 °C (dec.). For `CC(=O)N1CCC(c2ccc(CN(C)c3ccc(-c4csc(N(C)Cc5ccc(C(=O)O)cc5)n4)cc3)cc2)CC1` [Example 211, 4-((N-(4-(4-(N-(4-(1-acetylpiperidin-4-yl)benzyl)-N-methylamino)phenyl)-2-thiazolyl)-N-methylamino)methyl)benzoic acid], the melting point was 208 to 210 °C. `COc1cc(COc2ccc3nc(-c4csc(N(CC5CCCCC5)c5ccc(C(=O)O)cc5)n4)oc3c2)cc(OC)c1` [Example 191, 4-(N-cyclohexylmethyl-N-(4-(6-(3,5-dimethoxybenzyloxy)-2-benzooxazolyl)-2-thiazolyl)amino)benzoic acid] showed a melting point of 160 to 162 °C.

In the case of `CC(C)N(c1ccc(C(=O)O)c(Cl)c1)c1nc(-c2ccc(NC(=O)c3ccc(N4CCOCC4)cc3)cc2)cs1.Cl`, the melting point was 220 °C (dec.).
